Laboratory results as given in PubChem BioAssay (NCI).
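In this assay, cells in 96-well plates receive the compound at five concentrations for 48 hours. Endpoints are linearly interpolated between the surrounding concentrations. GI50 marks 50% less growth. TGI is the concentration that stops growth completely.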

Columns and labels:
Test in all cases: NCI-60 cell line screen, 48 h
CCRF-CEM leukemia = tested on: CCRF-CEM leukemia
NCI-H460 lung = tested on: NCI-H460 lung
NCI/ADR-RES ovarian = tested on: NCI/ADR-RES ovarian
OVCAR-3 ovarian = tested on: OVCAR-3 ovarian
OVCAR-5 ovarian = tested on: OVCAR-5 ovarian
RXF 393 renal = tested on: RXF 393 renal
SK-MEL-28 melanoma = tested on: SK-MEL-28 melanoma
SN12C renal = tested on: SN12C renal
SNB-19 CNS = tested on: SNB-19 CNS
UO-31 renal = tested on: UO-31 renal

| Compound | TGI (CCRF-CEM leukemia) [µM] | TGI (NCI-H460 lung) [µM] | TGI (NCI/ADR-RES ovarian) [µM] | TGI (OVCAR-3 ovarian) [µM] | TGI (OVCAR-5 ovarian) [µM] | TGI (RXF 393 renal) [µM] | TGI (SK-MEL-28 melanoma) [µM] | TGI (SN12C renal) [µM] | TGI (SNB-19 CNS) [µM] | TGI (UO-31 renal) [µM] | GI50 (CCRF-CEM leukemia) [µM] | GI50 (NCI-H460 lung) [µM] | GI50 (NCI/ADR-RES ovarian) [µM] | GI50 (OVCAR-3 ovarian) [µM] | GI50 (OVCAR-5 ovarian) [µM] | GI50 (RXF 393 renal) [µM] | GI50 (SK-MEL-28 melanoma) [µM] | GI50 (SN12C renal) [µM] | GI50 (UO-31 renal) [µM] | GI50 (SNB-19 CNS) [µM] |
| --- | --- | --- | --- | --- | --- | --- | --- | --- | --- | --- | --- | --- | --- | --- | --- | --- | --- | --- | --- | --- |
| COc1ccc(C2=[S+]C(c3ccccc3)(c3ccccc3)c3ccccc32)cc1 | 88.9 | 30.5 | > 100 | 43.6 | 49.5 | 26 | 58.5 | 37.1 | > 100 | – | – | – | – | – | – | – | – | – | – | – |
| O=C1C(CO)=C[C@H](O)[C@H]2O[C@@H]12 | 418 | 420 | 449 | 406 | 346 | 402 | 294 | 265 | > 625 | 507 | – | – | – | – | – | – | – | – | – | – |
| c1cc2c3c(c1)c1cc4c(cc1c[n+]3CC2)OCO4 | 35.8 | 12.2 | > 225 | 16.2 | 24.9 | 32.5 | 12.3 | 9.01 | 13.5 | > 176 | – | – | – | – | – | – | – | – | – | – |
| c1ccc2c(c1)c1ccccc1n2Cn1c2ccccc2c2ccccc21 | > 100 | > 100 | > 100 | > 100 | > 100 | > 100 | > 100 | > 100 | > 100 | > 100 | – | – | – | – | – | – | – | – | – | – |
| COc1cccc2c1C(=O)c1c(O)c3c(c(O)c1C2=O)C[C@@](O)(C(=O)COC(=O)c1ccccc1)C[C@@H]3OC1CC(N)C(O)C(C)O1 (stereo partly drawn) | 0.334 | 0.182 | 4.1 | 1.42 | 1.64 | 0.859 | 1.95 | 1.12 | – | 2.06 | 0.0427 | 0.0167 | 1.44 | 0.369 | 0.4 | 0.195 | 0.534 | 0.0936 | 0.497 | – |
| Cc1ccc(Cl)cc1N=NC(=O)NNc1cc(Cl)ccc1C | 54.4 | 39 | 63.9 | 37 | 32.7 | 72.7 | 38.9 | 80.8 | 43.2 | 35.7 | – | – | – | – | – | – | – | – | – | – |
| O=C(NN1C(=O)C(Cl)C1c1cccc([N+](=O)[O-])c1)c1ccccc1O (stereo not drawn) | > 100 | > 100 | – | > 100 | > 100 | > 100 | > 100 | > 100 | > 100 | > 100 | – | – | – | – | – | – | – | – | – | – |
| COc1cc(-c2ccc(N=Nc3ccc4c(S(=O)(=O)O)cc(S(=O)(=O)O)c(N)c4c3O)c(OC)c2)ccc1N=Nc1ccc2c(S(=O)(=O)O)cc(S(=O)(=O)O)c(N)c2c1O | > 100 | > 100 | > 100 | > 100 | > 100 | > 100 | > 100 | > 100 | > 100 | > 100 | – | – | – | – | – | – | – | – | – | – |
| O=c1nc2ccc([N+](=O)[O-])cc2[n+]([O-])[nH]1 | > 100 | > 100 | > 100 | > 100 | > 100 | > 100 | > 100 | > 100 | > 100 | > 100 | – | – | – | – | – | – | – | – | – | – |
| CCOc1cc(/C=C/C(=O)C(C(=O)/C=C/c2ccc(OC(=O)CNc3nc4ccccc4[nH]3)c(OCC)c2)C(=O)CNc2nc3ccccc3[nH]2)ccc1OC(=O)CNc1nc2ccccc2[nH]1 | 3.16 | 4.44 | 74 | 12.3 | 5.22 | > 100 | 3.56 | 5.61 | 11.7 | > 100 | 1.14 | 1.92 | 3.39 | 2.81 | 2.09 | 4.08 | 1.77 | 2.21 | 3.98 | 2.96 |
| c1ccc2c(c1)NCc1cc3ccccc3nc1O2 | > 100 | > 100 | > 100 | > 100 | > 100 | > 100 | > 100 | > 100 | > 100 | > 31.6 | – | – | – | – | – | – | – | – | – | – |
| C/C(=N\NC(=O)c1ccc(Cl)cc1)c1nc2ncccc2[nH]1 | > 100 | > 100 | 50.1 | 81.5 | > 100 | 55.4 | > 100 | > 100 | > 100 | > 100 | – | – | – | – | – | – | – | – | – | – |
| O=C(N/N=C\c1cccc2ccccc12)Nc1ccccc1 | > 100 | > 100 | > 100 | > 100 | > 100 | > 100 | > 100 | > 100 | > 100 | > 100 | – | – | – | – | – | – | – | – | – | – |
| O=C1CCC[C@H]2O[C@@H](COC(=O)c3ccccc3)C[C@H]2O1 | > 100 | > 100 | > 100 | > 100 | > 100 | – | > 100 | > 100 | > 100 | > 100 | – | – | – | – | – | – | – | – | – | – |
| Cc1cc(N/N=C/c2nc(-c3ccc(Cl)cc3)oc2C)c2cc(Br)ccc2n1 | – | 3.67 | 4.94 | 3.89 | 21.9 | 17.2 | 4.49 | 4.38 | 17.7 | 26.8 | – | 1.88 | 2.17 | 1.96 | 10.1 | 4.1 | 2.07 | 2.05 | 13.9 | 4.13 |
